This is an account of results in the METLIN SMRT retention time set (Domingo-Almenara et al. 2019).

This data set in a line: gradient 5% acetonitrile 3 min, to 50% in 2 min, to 85% in 15 min, held 3 min, 100 µL/min. Particulars: column: Zorbax Extend-C18 2.1 x 50 mm; eluents: water / acetonitrile, 0.1% formic acid. An outline of the steps:
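Retention times of pure standards were taken from adduct peaks that were selected by computer and manually inspected. Over 3 months, mixtures of ~100 molecules were run by HPLC–quadrupole time-of-flight mass spectrometry in positive and negative ionization mode. The Zorbax Extend-C18 column (2.1 × 50 mm, 1.8 μm) ran at 100 μL/min in water and acetonitrile, each containing 0.1% formic acid, with 40 μL dead volume and 900 μL dwell volume.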
In the case of `CC(C)Cc1csc(-c2csc(S(=O)(=O)Nc3cccc(Cl)c3)c2)n1`, the RP-LC retention time was found to be 1230 s.

The compound `Cc1noc(C)c1S(=O)(=O)N1CCC(c2noc(-c3cccnc3)n2)C1` (stereo not given) returned an RP-LC retention time of 796 s.

For `CCS(=O)(=O)N1CCC(c2ccccc2)C1` (stereo not given), the RP-LC retention time came out at 791 s.

The compound `Cc1cnc(C2CCC2)n1CCNC(=O)c1nccn1C` yielded an RP-LC retention time of 556 s.

`Cc1cc(OCC(=O)N2CCCC2)nc(-c2ccc(Cl)cc2)n1` had an RP-LC retention time of 937 s.

Consider `CCc1nnc(NC(=O)c2ccc(N3C(=O)CCC3=O)cc2)s1`, for which the RP-LC retention time is 627 s.

As to `COCCN1C(=O)CC[C@]2(C(=O)NCc3cc(F)ccc3F)CCCC[C@@H]12`, the RP-LC retention time amounted to 724 s.

Consider `O=C(C1COc2ccccc2O1)N1CCCN(C2CCN(CC3CC3)C2=O)CC1` (stereo not given), for which the RP-LC retention time was found to be 560 s.

`CN(C)c1ccc(CNC(=O)C2CCN(c3cncnc3N3CCCC3)CC2)cc1` came in with an RP-LC retention time of 555 s.

In turn, `COc1ccc(CN(C)Cc2cc(=O)n3ccc(C)cc3n2)cc1` gave an RP-LC retention time of 608 s.

In turn, `COc1ccccc1NC(=O)Cn1c(C)nc2onc(C)c2c1=O` yielded an RP-LC retention time of 772 s.

For `Cc1nc(CNC(=O)[C@H]2CCCN2S(=O)(=O)c2cccc(C(F)(F)F)c2)cs1`, the RP-LC retention time amounted to 787 s.

On to `Cc1ccc(NS(=O)(=O)c2cc3c(=O)n(C)ncn3c2)cc1C`, for which the RP-LC retention time was found to be 849 s.

`COc1ccc(C(=O)Nc2cc(-c3cccnc3)no2)c(C)c1`: the RP-LC retention time is 760 s.

On to `COc1ccc(-c2c(C)noc2NC(C)=O)cc1S(=O)(=O)Nc1cccc(C(F)(F)F)c1`, for which the RP-LC retention time stood at 821 s.

Compound `CN(C)S(=O)(=O)c1ccc2c(c1)N(CC(=O)NCCC1=CCCCC1)C(=O)C1CCCCN21` (stereo not given) had an RP-LC retention time of 996 s.

Compound `CC(C)NC(=O)c1ccc(OCC2CCCN(C(=O)c3ccccc3F)C2)cc1` (stereo not given) yielded an RP-LC retention time of 830 s.

As for `Cc1ccc(NC(=O)Cn2nc3c(Oc4ccccc4C)nccn3c2=O)cc1C`, the RP-LC retention time came out at 923 s.

`O=C(COc1ccccc1F)NC1CCCCC1N1C(=O)CSC1=O` (stereo not given): the RP-LC retention time stood at 768 s.

Consider `CCC1Oc2ccc(S(=O)(=O)N3CCC(C(=O)Nc4ccc(C(C)C)cc4)CC3)cc2NC1=O` (stereo not given), for which the RP-LC retention time worked out at 1000 s.

With `CCn1c(=O)c(-c2noc(C(=O)N3CCN(c4ccccn4)CC3)n2)nn(-c2ccc(F)cc2)c1=O`, the RP-LC retention time is 676 s.

As to `O=S(=O)(c1ccc2c(c1)CCC2)N1CC[C@@H]2COCCN(Cc3cccnc3)[C@@H]2C1`, the RP-LC retention time came out at 687 s.

For the compound `O=C(c1cnccn1)N1CCC2(CC1)N=C(c1ccccc1)NO2`, the RP-LC retention time is 641 s.

In the case of `CCOC(=O)C1CCCN(S(=O)(=O)c2cccc3cccnc23)C1` (stereo not given), the RP-LC retention time came to 798 s.

In turn, `COc1ccc(S(=O)(=O)C(CNC(=O)c2ccco2)c2cccs2)cc1` (stereo not given) came in with an RP-LC retention time of 735 s.

On to `COc1cc(C(=O)N2CCN(c3cc(=O)n(C(C)C)c(=O)n3C(C)C)CC2)cc(OC)c1OC`, for which the RP-LC retention time was determined as 800 s.

In turn, `CCCc1nc(-c2cc3cccc(C)c3nc2NCCc2ccc(S(N)(=O)=O)cc2)no1` registered an RP-LC retention time of 1300 s.

`Cc1ccsc1C(=O)N1CCN(C(=O)c2cc(-c3ccccn3)n[nH]2)CC1` showed an RP-LC retention time of 631 s.

`CCn1c(=O)sc2cc(S(=O)(=O)N3CCC(C(=O)NCc4cccc(OC)c4)CC3)ccc21` had an RP-LC retention time of 1000 s.

For `Cc1cc(C)cc(NC(=O)COc2cccc3c(=O)n(C)ccc23)c1`, the RP-LC retention time turned out to be 844 s.

`Cc1cc(-c2nnc(-c3ccco3)o2)c(C)n1CC(=O)NCc1ccc(F)cc1F`: the RP-LC retention time is 857 s.

`Cn1c(=O)c(N2CCC(NC(=O)Nc3ccccc3)CC2)nc2ccccc21`: the RP-LC retention time turned out to be 829 s.

Compound `Cc1ccc(Nc2c(-c3ccc(O)cc3)nc3ccc(Cl)cn23)cc1` showed an RP-LC retention time of 696 s.

The compound `CN(C)c1cccc(C(=O)NCc2[nH]nc3ccccc23)c1` displayed an RP-LC retention time of 580 s.

With `O=C(NCC1CCN(S(=O)(=O)C2CC2)CC1)c1cnc2ccccc2n1`, the RP-LC retention time was found to be 704 s.

In the case of `Cc1ccn2c(Nc3ccc4c(c3)OCCO4)c(-c3ccccc3)nc2c1`, the RP-LC retention time is 690 s.

For `CN1CCN(C(=O)c2nnc(-c3ccc(S(=O)(=O)N4CCCCC4)cc3)o2)CC1`, the RP-LC retention time was determined as 654 s.

Compound `O=C(Nc1cccnc1)C1CCN(S(=O)(=O)c2cccnc2)CC1` returned an RP-LC retention time of 591 s.

Consider `CCOC(=O)c1[nH]c(C)c(CCC(=O)N2CCCC(C(=O)NC3CCCCC3)C2)c1C` (stereo not given), for which the RP-LC retention time turned out to be 822 s.

For the compound `CCOC(=O)c1ccccc1NC(=O)Cn1cnc2nc(-c3cccnc3)ncc2c1=O`, the RP-LC retention time is 744 s.

Take `O=C(Nc1cccc(Cl)c1)c1cn(CC2CCCO2)cc2c(=O)n(-c3ccccc3)nc1-2` (stereo not given): the RP-LC retention time was 1100 s.

As for `CCc1ccc(NC(=O)C2CCCN(S(=O)(=O)c3c[nH]c(C(=O)N4CCCCCC4)c3)C2)cc1` (stereo not given), the RP-LC retention time came to 923 s.

For the compound `Cc1cc(C)c(S(=O)(=O)Nc2ccc3nc(N4CCN(C)CC4)cc(C(=O)O)c3c2)cc1C`, the RP-LC retention time stood at 611 s.

Consider `CCn1cnnc1C1CCCCN1S(=O)(=O)c1ccc(C#N)cc1` (stereo not given), for which the RP-LC retention time was 695 s.

On to `COc1cc(NC(=O)C2=C(C)OCCS2)c(Cl)cc1C(=O)N1CCN(c2ccccn2)CC1`, for which the RP-LC retention time is 668 s.

The compound `COc1cc2[nH]c3c(SCC(=O)N4CCc5ccccc5C4)ncnc3c2cc1OC` registered an RP-LC retention time of 744 s.

`CCOC(=O)CSc1nc2ccccc2n1C` gave an RP-LC retention time of 670 s.

For the compound `CCC1CN(C(=O)N2CCC(C(=O)NCCN3CCOCC3)CC2)c2ccccc2O1` (stereo not given), the RP-LC retention time was 630 s.

Consider `O=C(Cn1c(=O)oc2ccccc21)NCC1CCN(C(=O)c2cc3ccccc3o2)CC1`, for which the RP-LC retention time came to 738 s.

For the compound `Cc1ccnc(N2CCCC(C(=O)NCc3ccc(F)cc3)C2)n1` (stereo not given), the RP-LC retention time was 709 s.

`CN1C(=O)C(c2c(-c3ccc(Cl)cc3)[nH]c3[nH]c(=O)[nH]c(=O)c23)c2ccccc21` (stereo not given): the RP-LC retention time was 716 s.

Regarding `Cc1ccccc1NC(=O)C1C(=O)NC2(C)CC1c1ccccc1O2` (stereo not given), the RP-LC retention time was 869 s.

Consider `Cc1nc(C)c(C(=O)Nc2nc(-c3ccccc3)cs2)s1`, for which the RP-LC retention time is 886 s.

In turn, `Cc1ccoc1C(=O)N1C[C@@H](CO)[C@H](c2nc(C3CC3)no2)C1` returned an RP-LC retention time of 688 s.

With `CCOc1nc2ccccc2nc1N1CCCC(C(=O)Nc2ccc(F)c(Cl)c2)C1` (stereo not given), the RP-LC retention time amounted to 797 s.

For the compound `CCC(C)NC(=O)C1(c2ccc(NS(C)(=O)=O)cc2)CCCCC1` (stereo not given), the RP-LC retention time came out at 736 s.

In turn, `O=C(Nc1ccccc1C(F)(F)F)c1csc(-c2ccc(N3CCCC3)nc2)n1` displayed an RP-LC retention time of 890 s.

Compound `CCOC(=O)c1nc(N2CCOCC2)c2c(-c3ccccc3Cl)noc2n1` returned an RP-LC retention time of 934 s.

Turning to `CSc1ncccc1-c1nc(-c2ccc3oc(C)nc3c2)no1`, the RP-LC retention time was 1100 s.

For the compound `CC(C)Cc1cc(-c2nn3c(CSc4ccccc4)nnc3s2)n[nH]1`, the RP-LC retention time was found to be 948 s.

As for `Cc1csc2nc(-c3cccc(NC(=O)c4ccccc4[N+](=O)[O-])c3)cn12`, the RP-LC retention time is 667 s.

On to `COc1ccc(NC(=O)c2cn3c(n2)CSCC3)cc1F`, for which the RP-LC retention time came out at 694 s.

`CN1CCN(C(=O)c2ccc(S(=O)(=O)c3ccccc3)s2)CC1` yielded an RP-LC retention time of 605 s.

For the compound `COC(=O)c1cccc(COC(=O)C2=CN(Cc3ccccc3)S(=O)(=O)N=C2C)c1`, the RP-LC retention time turned out to be 1060 s.

`CN(C)CCNC(=O)C1CCCN(c2ncnc3c2nc2n3CCCCC2)C1` (stereo not given) registered an RP-LC retention time of 573 s.

`O=C(N1CC(Oc2cccc(-c3nc(-c4ccccc4)no3)c2)C1)C1(c2ccccc2)CC1` gave an RP-LC retention time of 1310 s.

Take `Cc1sc(-c2nnc(C3CC3)o2)cc1NC(=O)c1n[nH]c2c1CCCC2`: the RP-LC retention time turned out to be 916 s.

The compound `CCN(CC)S(=O)(=O)c1ccc2c(c1)N(CC(=O)NC)C(=O)C1CCCCN21` (stereo not given) showed an RP-LC retention time of 753 s.

Compound `COc1cc(OC)c(NC(=O)N2CCCC2c2nncn2C2CCCC2)cc1Cl` (stereo not given) displayed an RP-LC retention time of 668 s.

As to `C=CCn1c(C)c(CC(=O)NCC(C)C)c(=O)n2nc(-c3ccc(C)cc3)nc12`, the RP-LC retention time amounted to 840 s.

The compound `COc1cc(Cl)ccc1C(=O)NCc1c(C)noc1C` showed an RP-LC retention time of 810 s.

Turning to `CCc1ccc(NC(=O)C2CCN(S(C)(=O)=O)c3ccccc3O2)cc1` (stereo not given), the RP-LC retention time is 912 s.

For the compound `CC1(C(=O)NCc2ccccc2)CN(S(C)(=O)=O)CC(=O)N1CCc1ccc(Cl)cc1` (stereo not given), the RP-LC retention time came to 874 s.

`O=C(CC1CCCCC1)NCC(=O)Nc1nc2ccccc2[nH]1` displayed an RP-LC retention time of 661 s.

`CCOC(=O)c1ccc2nc(NC(=O)c3ccco3)sc2c1`: the RP-LC retention time turned out to be 830 s.

Take `CCC1(c2ccccc2)NC(=O)N(C)C1=O` (stereo not given): the RP-LC retention time was 794 s.

Regarding `COc1ccc(CNS(=O)(=O)c2cc(-c3nc(C(C)(C)C)cs3)cs2)cc1`, the RP-LC retention time came out at 1200 s.

Compound `COc1ccc(-c2noc(C3CCCN3C(=O)c3ccc4c(c3)OCO4)n2)cc1OC` (stereo not given) came in with an RP-LC retention time of 836 s.

The compound `Oc1c(C(Nc2nccs2)c2ccc(F)cc2)ccc2cccnc12` (stereo not given) gave an RP-LC retention time of 654 s.

`CN(CCc1noc(COc2ccc(F)cc2)n1)C(=O)c1ccc(F)cc1` gave an RP-LC retention time of 878 s.
